Data reported in US20240254143A1, “OREXIN RECEPTOR AGONISTS AND USES THEREOF” (JAZZ PHARMACEUTICALS IRELAND LIMITED, priority 2021, published 2024).

Target: T1, human recombinant OX2 (hOX2) receptor (Homo sapiens, UniProt O43614)
T1 construct: host or cells: CHO cells
T1 sequence (O43614 1-444): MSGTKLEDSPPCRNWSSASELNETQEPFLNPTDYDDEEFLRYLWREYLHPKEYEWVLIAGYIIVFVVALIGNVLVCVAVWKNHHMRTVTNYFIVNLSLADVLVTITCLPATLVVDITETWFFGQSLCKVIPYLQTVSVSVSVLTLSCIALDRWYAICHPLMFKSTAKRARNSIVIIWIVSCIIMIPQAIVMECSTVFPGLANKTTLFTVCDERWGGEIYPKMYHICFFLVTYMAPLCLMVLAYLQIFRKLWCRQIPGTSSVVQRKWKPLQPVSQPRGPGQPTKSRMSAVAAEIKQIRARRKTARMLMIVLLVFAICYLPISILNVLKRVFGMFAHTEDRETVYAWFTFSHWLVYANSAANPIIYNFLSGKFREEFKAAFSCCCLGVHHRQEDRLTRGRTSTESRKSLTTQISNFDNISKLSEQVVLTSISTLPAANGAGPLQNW
Experiment: IP-1 accumulation assay (IP-One HTRF) in hOX2-CHO cells
Assay type: cell-based
Conditions: 60 min at 37° C., mean of at least two independent experiments, read-out: EC50_OX2R Category
Procedure: Example 94: IP-1 Accumulation Assay
The accumulation of Inositol-1 Monophosphate (IP-1) was measured using IP-One HTRF® Terbium cryptate based assay (Cisbio) in human recombinant OX1 (hOX1) and at OX2 (hOX2) receptors expressed in CHO cells (DiscoverX) according to the manufacturer's instructions for cells tested in suspension.
hOX1-CHO and hOX2-CHO cells were seeded into white 384-well plates at a density of 20,000 cells/well in Hank's Balanced Salt Solution (HBSS) containing 20 mM HEPES pH 7.4, 50 mM, LiCl and 0.1% and Bovine Serum Albumin (BSA).
Compounds of the present disclosure were tested in a 11 points concentration response curve (CRC) serially diluted in neat DMSO at 200 fold concentrations and added by Echo acoustic liquid handling (Labcyte) to the cells (0.5% DMSO final in the assay). After 60 min of incubation at 37° C. detection reagents, IP1-d2 tracer and anti-IP1-cryptate were diluted in lysis buffer according to the manufacturer's descriptions and added to the cells.
Following 60 mi incubation at room temperature, time-resolved fluorescence (HTRF) was measured at 615 nm and 665 nm by Envision Multilabel reader (Perkin Elmer) and the HTRF ratio (A665/A615×10^4) was calculated.
The IP-1 accumulation response was expressed as percentage of the maximal OX-A response.
Curve fitting and EC50 estimations were carried out using a four-parameter logistic model using XLfit Software. Mean data of EC50 are calculated from at least two independent experiments performed in duplicates.

| SMILES | EC50 [µM] |
| --- | --- |
| CCNC(=O)N1CCC(F)(F)[C@@]2(CCOC(=O)N2)[C@@H]1CO[C@H]1CC[C@@H](c2ccccc2)CC1 (single isomer, unassigned) [Example 45] | < 0.1 |
| O=C1COC[C@@]2(CCN(C(=O)[C@H]3C[C@@H](F)C3)[C@H]2Cc2cccc(-c3cc(F)cc(F)c3)c2F)N1 (single isomer, unassigned) [Example 72] | 0.1 to 1 |
| COc1cccnc1N1[C@H](C)C[C@@]2(COCC(=O)N2)[C@@H]1CO[C@H]1CC[C@@H](c2ccccc2)CC1 [Example 63, (1R,3R,5S)-2-(3-methoxypyridin-2-yl)-3-methyl-1-({[(CIS)-4-phenylcyclohexyl]oxy}methyl)-9-oxa-2,6-diazaspiro[4.5]decan-7-one] | 0.1 to 1 |
| CCNC(=O)N1CCC[C@]2(CCCC(=O)N2)[C@H]1CO[C@H]1CC[C@@H](c2ccccc2)CC1 (single isomer, unassigned) [Example 34] | > 10 |
| CCNC(=O)N1CCC[C@]2(CNS(=O)(=O)N2)[C@H]1Cc1cccc(-c2ccccc2)c1 (single isomer, unassigned) [Example 32] | > 10 |
| C[C@@H]1C[C@@]2(COCC(=O)N2)[C@H](Cc2cccc(-c3cc(F)cc(F)c3)c2F)N1C(=O)[C@H]1C[C@@H](F)C1 [Example 82, (1S,3R,5S)-3-methyl-2-[(1s,3s)-3-fluorocyclobutanecarbonyl]-1-({2,3′,5′-trifluoro-[1,1′-biphenyl]-3-yl}methyl)-9-oxa-2,6-diazaspiro[4.5]decan-7-one] | < 0.1 |
| C[C@@H]1C[C@@]2(COCC(=O)N2)[C@H](CO[C@H]2CC[C@@H](c3ccccc3)CC2)N1C(=O)C12CC(C1)C2 [Example 60, (1R,3R,5S)-2-{bicyclo[1.1.1]pentane-1-carbonyl}-3-methyl-1-({[(CIS)-4-phenylcyclohexyl]oxy}methyl)-9-oxa-2,6-diazaspiro[4.5]decan-7-one] | 1 to 10 |
| CCNC(=O)N1CCC[C@]2(CCOC(=O)N2)[C@H]1CO[C@H]1CC[C@@H](c2ccccc2)CC1 (single isomer, unassigned) [Example 13] | > 10 |
| C[C@@H]1C[C@@]2(COCC(=O)N2)[C@H](Cc2cccc(-c3cc(F)cc(F)c3)c2F)N1C(=O)CC(F)(F)F [Example 84, (1S,3R,5S)-3-methyl-1-({2,3′,5′-trifluoro-[1,1′-biphenyl]-3-yl}methyl)-2-(3,3,3-trifluoropropanoyl)-9-oxa-2,6-diazaspiro[4.5]decan-7-one] | 0.1 to 1 |
| CCNC(=O)N1CCC[C@@]2(CNS(=O)(=O)N2)[C@@H]1Cc1cccc(-c2ccccc2)c1 (single isomer, unassigned) [Example 31] | > 10 |
| CCNC(=O)N1CCC[C@@]2(CNS(=O)(=O)N2)[C@@H]1Cc1cccc(-c2ccccc2)c1 (racemic) [Example 30, (CIS)-6-({[1,1′-biphenyl]-3-yl}methyl)-N-ethyl-2,2-dioxo-2λ^6-thia-1,3,7-triazaspiro[4.5]decane-7-carboxamide] | > 10 |
| C[C@@H]1C[C@@]2(COCC(=O)N2)[C@H](CO[C@H]2CC[C@@H](c3ccccc3)CC2)N1C(=O)NCC(F)F [Example 50, (1R,3R,5S)-N-(2,2-difluoroethyl)-3-methyl-7-oxo-1-({[(CIS)-4-phenylcyclohexyl]oxy}methyl)-9-oxa-2,6-diazaspiro[4.5]decane-2-carboxamide] | < 0.1 |
| COC(=O)N1CCC[C@@]2(COC(=O)N2)[C@@H]1Cc1cccc(-c2ccccc2)c1 [Example 29, Methyl (5S,6S)-6-({[1,1′-biphenyl]-3-yl}methyl)-2-oxo-3-oxa-1,7-diazaspiro[4.5]decane-7-carboxylate] | > 10 |
| O=C1COCC2(CCCN(C(=O)C3CC3)C2CO[C@H]2CC[C@@H](c3ccccc3)CC2)N1 (mixture of isomers) [Example 7, (CIS)-8-cyclopropanecarbonyl-7-({[(CIS)-4-phenylcyclohexyl]oxy}methyl)-4-oxa-1,8-diazaspiro[5.5]undecan-2-one] | 0.1 to 1 |
| COC(=O)N1CCC[C@]2(CCOC(=O)N2)[C@@H]1Cc1cccc(-c2ccccc2)c1 (single isomer, unassigned) [Example 22] | > 10 |
